Laboratory results as given in patent US12630563B2, “Macrocyclic RIP2-kinase inhibitors” (Oncodesign S.A., priority 2020, dated 2026).

Target: T1, recombinant hRIPK2 protein (kinase domain aa 1-299-His-tagged) (Homo sapiens, UniProt O43353)
T1 construct: kinase domain aa 1-299-His-tagged; purchased Life Technologies PR7829A
Assay: RIPK2 AlphaLISA assay (displacement of bead-bound CZC-8004 from hRIPK2)
Format: binding
Conditions: recombinant hRIPK2 kinase domain 10 nM, 2 h at 23° C.
Text: RIPK2 AlphaLISA® Assay (Amplified Luminescent Proximity Homogeneous Assay)
A non-specific kinase inhibitor (CZC-8004 Cayman #916603-07-1) bound to an acceptor bead (#6772001 PerkinElmer) was mixed to the recombinant hRIPK2 protein (kinase domain aa 1-299-His-tagged—Life Technologies PR7829A) and a Ni2+-tagged donor beads (#AS101D PerkinElmer). In the presence of an inhibitor, the compound beads displacement from hRIPK2 was followed by signal loss. In a 384-well ProxiPlate@ (Perkin Elmer, 6008280) add:
2 μL RIPK2 inhibitor (in DMSO 0.8%).
2 μL human recombinant RIPK2 (10 nM diluted in AlphaLISA buffer 1×).
4 μL Mix of […] 1/1000 in AlphaLISA buffer 1×.
Homogenize using a microtiter plate shaker and incubate for 2 h at 23° C.
Read using EnVision®-Alpha Reader (PerkinElmer) according to manufacturer specifications.

T1 sequence (O43353 1-299): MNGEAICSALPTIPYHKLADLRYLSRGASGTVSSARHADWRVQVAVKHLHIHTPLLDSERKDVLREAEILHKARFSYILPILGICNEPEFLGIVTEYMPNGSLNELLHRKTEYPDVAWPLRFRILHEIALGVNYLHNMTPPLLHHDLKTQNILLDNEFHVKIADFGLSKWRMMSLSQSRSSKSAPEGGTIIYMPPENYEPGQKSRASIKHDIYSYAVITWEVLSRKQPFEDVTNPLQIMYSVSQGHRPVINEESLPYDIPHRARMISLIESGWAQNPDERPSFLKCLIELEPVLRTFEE

| IC50 [nM] | Structure (SMILES) |
| --- | --- |
| < 10 | CO[C@@H]1C[C@H]2COc3nc4c(cnn4cc3C)-c3cc(F)cc(c3)NCCN2C1=O [Example 30, (12R,14S)-4-fluoro-12-methoxy-18-methyl-16-oxa-7,10,20,21,24-pentaazapentacyclo[15.5.2.1^2,6.0^10,^14.0^20,^23]pentacosa-1(23),2(25),3,5,17(24),18,21-heptaen-11-one] |
| < 10 | COCc1cn2ncc3c2nc1OC[C@@H]1C[C@@H](OC)C(=O)N1CCNc1cc(F)cc-3c1 [Example 33, (12R,14S)-4-fluoro-12-methoxy-18-(methoxymethyl)-16-oxa-7,10,20,21,24-pentaazapentacyclo[15.5.2.1^2,6.0^10,^14.0^20,^23]pentacosa-1(23),2(25),3,5,17(24),18,21-heptaen-11-one] |
| < 10 | CO[C@@H]1C[C@H]2COc3nc4c(cnn4cc3F)-c3cc(F)cc(c3)NCCN2C1=O [Example 34, (12R,14S)-4,18-difluoro-12-methoxy-16-oxa-7,10,20,21,24-pentaazapentacyclo[15.5.2.1^2,6.0^10,^14.0^20,^23]pentacosa-1(23),2(25),3,5,17(24),18,21-heptaen-11-one] |
| < 10 | COCCO[C@@H]1C[C@H]2COc3ccn4ncc(c4n3)-c3cc(F)cc(c3)NCCN2C1=O [Example 35, (12R,14S)-4-fluoro-12-(2-methoxyethoxy)-16-oxa-7,10,20,21,24-pentaazapentacyclo[15.5.2.1^2,6.01^0,^14.0^20,23]pentacosa-1(23),2,4,6(25),17(24),18,21-heptaen-11-one] |
| < 10 | [2H]C([2H])([2H])O[C@@H]1C[C@H]2COc3ccn4ncc(c4n3)-c3cc(F)cc(c3)NCCN2C1=O [Example 36, (12R,14S)-4-fluoro-12-(^2H3)methoxy-16-oxa-7,10,20,21,24-pentaazapentacyclo[15.5.2.1^2,6.0^10,^14.0^20,^23]pentacosa-1(23),2(25),3,5,17(24),18,21-heptaen-11-one] |
| < 10 | [2H]C([2H])([2H])O[C@@H]1C[C@H]2COc3ccn4ncc(c4n3)-c3cc(cc(OC)c3)NCCN2C1=O [Example 37, (12R,14S)-12-(2H3)methoxy-4-methoxy-16-oxa-7,10,20,21,24-pentaazapentacyclo[15.5.2.1^2,6.0^10,^14.0^20,^23]pentacosa-1(23),2,4,6(25),17(24),18,21-heptaen-11-one] |
| < 10 | CC(C)O[C@@H]1C[C@H]2COc3ccn4ncc(c4n3)-c3cc(Cl)cc(c3)NCCN2C1=O [Example 38, (12R,14S)-4-chloro-12-(propan-2-yloxy)-16-oxa-7,10,20,21,24-pentaazapentacyclo[15.5.2.1^2,6.0^10,^14.0^20,^23]pentacosa-1(23),2,4,6(25),17(24),18,21-heptaen-11-one] |
| < 10 | CCO[C@@H]1C[C@H]2COc3nc4c(cnn4cc3C)-c3cc(cc(OC)c3)NCCN2C1=O [Example 39, (2^3Z,2^4E,5^2S,5^4R)-5^4-ethoxy-1^5-methoxy-2^6-methyl-3-oxa-8-aza-2(3,5)-pyrazolo[1,5-a]96yrimidine-5(2,1)-pyrrolidina-1(1,3)-benzenacyclooctaphan-5^5-one] |
| < 10 | CO[C@@H]1CC2(C)COc3ccn4ncc(c4n3)-c3cc(F)cc(c3)NCCN2C1=O (stereo partly drawn) [Example 40] |
| < 10 | CO[C@@H]1C[C@H]2COc3ccn4ncc(c4n3)-c3cc(cc(-n4cccn4)c3)NCCN2C1=O [Example 41, (12R,14S)-12-methoxy-4-(1H-pyrazol-1-yl)-16-oxa-7,10,20,21,24-pentaazapentacyclo[15.5.2.1^2,6.0^10,^14.0^20,^23]pentacosa-1(23),2(25),3,5,17(24),18,21-heptaen-11-one] |
| < 10 | CO[C@@H]1C[C@H]2COc3nc4c(cnn4cc3C)-c3cc(cc(-n4cccn4)c3)NCCN2C1=O [Example 42, (12R,14S)-12-methoxy-18-methyl-4-(1H-pyrazol-1-yl)-16-oxa-7,10,20,21,24-pentaazapentacyclo[15.5.2.1^2,6.0^10,^14.0^20,^23]pentacosa-1(23),2(25),3,5,17(24),18,21-heptaen-11-one] |
| < 10 | CO[C@@H]1C[C@H]2COc3ccn4ncc(c4n3)-c3cc(cc(-n4nccc4C)c3)NCCN2C1=O [Example 43, (12R,14S)-12-methoxy-4-(5-methyl-1H-pyrazol-1-yl)-16-oxa-7,10,20,21,24-pentaazapentacyclo[15.5.2.1^2,6.0^10,^14.0^20,^23]pentacosa-1(23),2(25),3,5,17(24),18,21-heptaen-11-one] |
| 10 to 100 | CO[C@@H]1C[C@H]2COc3ccn4ncc(c4n3)-c3cc(cc(OCc4cccnc4)c3)NCCN2C1=O [Example 44, (12R,14S)-12-methoxy-4-(pyridin-3-ylmethoxy)-16-oxa-7,10,20,21,24-pentaazapentacyclo[15.5.2.1^2,6.0^1°,^14.0^2°,^23]pentacosa-1 (23),2(25),3,5,17(24),18,21-heptaen-11-one] |
| 100 to 11000 | CO[C@@H]1C[C@H]2COc3ccn4ncc(c4n3)-c3cc(cc(OCC4CC4)c3)NCCN2C1=O [Example 45, (12R,14S)-4-(cyclopropylmethoxy)-12-methoxy-16-oxa-7,10,20,21,24-pentaazapentacyclo[15.5.2.1^2,6.0^10,^14.0^20,^23]pentacosa-1(23),2,4,6(25),17(24),18,21-heptaen-11-one] |
| 10 to 100 | CO[C@@H]1C[C@H]2COc3ccn4ncc(c4n3)-c3cc(cc(OCc4cnn(C)c4)c3)NCCN2C1=O [Example 46, (12R,14S)-12-methoxy-4-[(1-methyl-1H-pyrazol-4-yl)methoxy]-16-oxa-7,10,20,21,24-pentaazapentacyclo[15.5.2.1^2,6.0^10,^14.0^20,^23]pentacosa-1(23),2,4,6(25),17(24),18,21-heptaen-11-one] |
| < 10 | COCCO[C@@H]1C[C@H]2COc3ccn4ncc(c4n3)-c3cc(cc(OC)c3)NCCN2C1=O [Example 47, (12R,14S)-4-methoxy-12-(2-methoxyethoxy)-16-oxa-7,10,20,21,24-pentaazapentacyclo[15.5.2.1^2,6.0^10,^14.0^20,^23]pentacosa-1(23),2(25),3,5,17(24),18,21-heptaen-11-one] |
| 100 to 11000 | CO[C@@H]1C[C@H]2COc3nc4c(cnn4cc3C)-c3cc(cc(OCC4CC4)c3)NCCN2C1=O [Example 48, (12R,14S)-4-(cyclopropylmethoxy)-12-methoxy-18-methyl-16-oxa-7,10,20,21,24-pentaazapentacyclo[15.5.2.1^2,6.0^10,^14.0^20,^23]pentacosa-1(23),2,4,6(25),17(24),18,21-heptaen-11-one] |
| 10 to 100 | CO[C@@H]1C[C@H]2COc3nc4c(cnn4cc3C)-c3cc(cc(OCc4cccnc4)c3)NCCN2C1=O [Example 49, (12R,14S)-12-methoxy-18-methyl-4-(pyridin-3-ylmethoxy)-16-oxa-7,10,20,21,24-pentaazapentacyclo[15.5.2.1^2,6.0^10,^14.0^20,^23]pentacosa-1(23),2,4,6(25),17(24),18,21-heptaen-11-one] |
| 10 to 100 | CO[C@@H]1C[C@H]2COc3nc4c(cnn4cc3C)-c3cc(cc(OCC4CCOC4)c3)NCCN2C1=O (stereo partly drawn) [Example 50, (12R,14S)-12-methoxy-18-methyl-4-(oxolan-3-ylmethoxy)-16-oxa-7,10,20,21,24-pentaazapentacyclo[15.5.2.1^2,6.0^10,^14.0^20,^23]pentacosa-1(23),2,4,6(25),17(24),18,21-heptaen-11-one] |
| 100 to 11000 | CO[C@@H]1C[C@H]2COc3nc4c(cnn4cc3C)-c3cc(cc(OCc4cnn(C)c4)c3)NCCN2C1=O [Example 51, (12R,14S)-12-methoxy-18-methyl-4-[(1-methyl-1H-pyrazol-4-yl)methoxy]-16-oxa-7,10,20,21,24-pentaazapentacyclo[15.5.2.1^2,6.0^10,^14.0^20,^23]pentacosa-1(23),2,4,6(25),17(24),18,21-heptaen-11-one] |
| < 10 | [2H]C([2H])([2H])Oc1cc2cc(c1)-c1cnn3ccc(nc13)OC[C@@H]1C[C@@H](OC)C(=O)N1CCN2 [Example 52, (12R,14S)-4-(^2H3)methoxy-12-methoxy-16-oxa-7,10,20,21,24-pentaazapentacyclo[15.5.2.1^2,6.0^10,^14.0^20,^23]pentacosa-1(23),2,4,6(25),17(24),18,21-heptaen-11-one] |
| < 10 | [2H]C([2H])([2H])Oc1cc2cc(c1)-c1cnn3ccc(nc13)OC[C@@H]1C[C@@H](OC([2H])([2H])[2H])C(=O)N1CCN2 [Example 53, (12R,14S)-4,12-bis(^2H3)methoxy-16-oxa-7,10,20,21,24-pentaazapentacyclo[[15.5.2.1^2,6.0^10,^14.0^20,^23]pentacosa-1(23),2,4,6(25),17(24),18,21-heptaen-11-one] |
| < 10 | CCN(C)C(=O)c1cc2cc(c1)-c1cnn3ccc(nc13)OC[C@@H]1C[C@@H](OC)C(=O)N1CCN2 [Example 56, (12R,14S)-N-ethyl-12-methoxy-N-methyl-11-oxo-16-oxa-7,10,20,21,24-pentaazapentacyclo[15.5.2.1^2,6.0^10,^14.0^20,^23]pentacosa-1(23),2,4,6(25),17(24),18,21-heptaene-4-carboxamide] |
| < 10 | CCO[C@@H]1C[C@H]2COc3ccn4ncc(c4n3)-c3cc(cc(C(=O)N(C)OC)c3)NCCN2C1=O [Example 57, (12R,14S)-12-ethoxy-N-methoxy-N-methyl-11-oxo-16-oxa-7,10,20,21,24-pentaazapentacyclo[15.5.2.1^2,6.0^10,^14.0^20,^23]pentacosa-1(23),2(25),3,5,17(24),18,21-heptaene-4-carboxamide] |
